Assays:
[1] = tested on: SRB; test: Hydrogen sulfide inhibition in actual produced water (Eagle Ford shale, diluted to 3%), H2S by Draeger tubes; assay type: cell-based, sulfate-reducing bacteria (SRB); settings: 20 ppm MoO4 alone, actual produced water (Example 7)
Description: (§1) Hydrogen sulfide inhibition was tested in mock-produced water approximating water used in hydraulic fracturing operations and was made to a total dissolved solids concentration of 3% with a mixture of instant ocean and NaCl salts. The water was supplemented with nutrients and sulfate to allow SRB to metabolize and create H2S. The water was spiked with SRB and then treated with the various treatment conditions noted below in Table 3 and sealed. Treatment conditions were: Control: No biocide or nitrate.
(§2) H2S was measured at intervals using H2S detecting Draeger tubes. Dissolved H2S was released into the gas phase with the addition of hydrochloric acid so that H2S could be measured with the Draeger tubes to get a complete reading of all H2S produced during the course of the example.
Samples were prepared in accordance with Example 4, except that actual produced water sourced from the Eagle Ford shale that was diluted to 3% using deionized water was used in the samples.
Example 7 was performed in accordance with Example 6 using actual produced water. Samples of the following were mixed with the […].

[2] = tested on: SRB; test: Hydrogen sulfide inhibition in mock-produced water spiked with SRB, H2S by Draeger tubes; assay type: cell-based, sulfate-reducing bacteria (SRB); settings: 20 ppm MoO4 alone, mock produced water (Example 6)
Description: as §1, §2
Example 6 was performed in accordance with Example 4 using mock produced water. Samples of the following were mixed with the mock produced water.

SMILES: [O]=[Mo](=[O])([O-])[O-] [MoO4, molybdate]
- Total H2S [1]: 3188 ppm
- Total H2S [2]: 1974 ppm
